In publication PMC3773049 (Journal of the American Chemical Society, 2013):
Read-outs that look alike come from different tables or passages of the source.

What was measured:
human c-20S β5c = human c-20S β5c (Homo sapiens, UniProt P20618+P28074); assay: Inhibition of human constitutive 20S β5c; assay type: biochemical; settings: read-out: Ki μM β5c; Table 2
human i-20S β5i = human i-20S β5i (Homo sapiens, UniProt P20618+P28062); assay: Inhibition of human immunoproteasome β5i; assay type: biochemical; settings: Table 2
[1] = system: mycobacterial proteasome in M. bovis strain BCG; assay type: cell-based; settings: for protection of mycobacterial proteasome from HT1171: then HT1171 25 μM 1 hour
Mtb20SOG [2] = target: T1, Mtb20SOG (Mycobacterium tuberculosis, UniProt P9WHT9)
Mtb20SOG [3] = target: Mtb20SOG
Mtb20SOG [4] = target: T1, Mtb20SOG; remark: listed apart in the source
[5] = over 22 hours

T1 sequence (P9WHT9 58-291): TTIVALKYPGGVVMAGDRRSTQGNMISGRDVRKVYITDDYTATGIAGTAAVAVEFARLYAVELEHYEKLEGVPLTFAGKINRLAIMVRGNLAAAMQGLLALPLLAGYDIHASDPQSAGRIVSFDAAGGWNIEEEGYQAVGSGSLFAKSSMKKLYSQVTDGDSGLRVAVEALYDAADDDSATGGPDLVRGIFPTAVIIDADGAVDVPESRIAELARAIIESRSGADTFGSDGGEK

| SMILES | Ki (human c-20S β5c) [µM] | Ki(β5i)/Ki(Mtb) (human i-20S β5i) | Ki (human i-20S β5i; read-out: Ki μM β5i) [µM] | protection of mycobacterial proteasome from HT1171 ([1]; DPLG-2 1 μM 4 hours) | protection of mycobacterial proteasome from HT1171 ([1]; DPLG-2 10 μM 4 hours) | protection of mycobacterial proteasome from HT1171 ([1]; DPLG-2 50 μM 4 hours) | increase in potency against Mtb20SOG compared to ML9 (Mtb20SOG [2]) [fold] | Ki (Mtb20SOG [2]; read-out: Ki μM Mtb20SOG) [µM] | Ki(β5c)/Ki(Mtb) (Mtb20SOG [3]) | species selectivity for Mtb20SOG over human constitutive proteasome β5 subunit (Mtb20SOG [3]) [fold] | apparent kon (Mtb20SOG [4]) | dissociation rate constant koff (Mtb20SOG [4]) [s⁻¹] | mode of inhibition of Mtb20SOG (Mtb20SOG [4]) | Ki (Mtb20SOG [4]; read-out: Ki^app calculated from koff/kon) [nM] | Ki (Mtb20SOG [4]; read-out: apparent Ki^app against Mtb20SOG) [nM] | stability in human plasma [5] | inhibition of proteasomes in intact BCG ([1]; HT1171 25 μM, 1 hour, absence of DPLG-2) |
| --- | --- | --- | --- | --- | --- | --- | --- | --- | --- | --- | --- | --- | --- | --- | --- | --- | --- |
| CCN(CC)C(=O)C[C@H](NC(=O)CCc1ccccc1)C(=O)N[C@@H](Cc1ccc(F)cc1)C(=O)NCc1cccc2ccccc12 [DPLG-2] | 70 | 3650 | 54.7 | HT1171 inhibited the proteasomes irreversibly | able to shield the mycobacterial proteasome active sites from HT1171 | able to shield the mycobacterial proteasome active sites from HT1171 | 4 | 0.015 | 4670 | 4670 | 5.7 ± 0.2 × 10^4 M^−1s^−1 | 0.0015 ± 0.0001 | time-dependent manner | 26.3 | 24.2 ± 0.9 | stable |  |
| Cc1sc(-c2nsc(=O)o2)cc1[N+](=O)[O-] [HT1171, reference compound] |  |  |  |  |  |  |  |  |  |  |  |  |  |  |  |  | inhibited the proteasomes irreversibly |
